Experimental findings from patent publication US9913838B2, “Methods of treating cancer using compositions comprising perillyl alcohol derivative” (NEONC TECHNOLOGIES INC., priority 2010, dated 2018) are described below.

The subject of experiment [1] is USC-04 glioma cancer stem cells. The experiment can be described thus: cells. The settings on record: read-out: cytotoxicity with 1050. As to the method:
MTT cytotoxicity assays were carried out after cells were treated with the TMZ alone, POH alone, or the TMZ-POH conjugate. The MTT cytotoxicity assays were carried out as described in Chen T C, et al. Green tea epigallocatechin gallate enhances therapeutic efficacy of temozolomide in orthotopic mouse glioblastoma models. Cancer Lett. 2011 Mar. 28; 302(2):100-8.

Experiment [2] deals with γ-H2AX, activated caspase 7 and cleaved PARP. In words: DNA damage and cell death marker analysis in MDA-MB-231 cells (Western blot). Format: cell-based, human. Conditions: in words. On the procedure: FIGS. 25A-25B show DNA damage and cell death marker analysis, where MDA-MB-231 cells were used for Western blot analysis of expression levels for markers of DNA damage (γ-H2AX) and cell death (activated caspase 7 and cleaved PARP). In FIG. 25A, cells were treated with 15 μM TMZ-POH and harvested every 24 hours up to 6 days; control cells remained untreated, or received vehicle (vh.) only. In FIG. 25B, cells were treated with 20 μM of either TMZ-POH, TMZ, or POH individually, or with 20 μM TMZ combined with 20 μM POH (TMZ+POH) and harvested after 24 hours or 5 days; control cells remained untreated, or received vehicle (vh.) only. In the case of caspase 7, only the activated (cleaved) form is shown (cl. C-7).
Total cell lysates were analyzed by Western blot analysis as described in P. Pyrko et al. Downregulation of survivin expression and concomitant induction of apoptosis by celecoxib and its non-cyclooxygenase-2-inhibitory analog, dimethyl-celecoxib (DMC), in tumor cells in vitro and in vivo. Mol Cancer 5 (2006) 19. The primary antibodies were purchased from Cell Signaling Technology (Beverly, Mass.) or Santa Cruz Biotechnology, Inc. (Santa Cruz, Calif.) and used according to the manufacturers' recommendations. All immunoblots were repeated at least once to confirm the results.
It is known that GBM cells treated with physiological concentrations of TMZ (<100 μM) in vitro can survive for several (5-7) days seemingly unaffected before substantial cell death becomes apparent. We observed a similar phenotype when breast cancer cell lines were treated with TMZ-POH, i.e., cell cultures only began to deteriorate approximately a week after the onset of drug treatment. In order to characterize TMZ-POH-induced cell death in greater detail, we treated MDA-MB-231 cells with 15 μM of the drug and collected cell lysates daily over the course of 6 days. The lysates were analyzed by Western blot for the presence of two apoptosis markers, cleaved (i.e. activated) caspase 7 and cleaved PARP-1 (poly ADP-ribose polymerase-1), along with the DNA damage marker γ-H2AX.
As shown in FIGS. 20A-20B above, an equimolar combination of TMZ+POH was unable to achieve the same potency in blocking colony survival as the TMZ-POH conjugate. […] We treated cells with the same concentration (20 μM) of TMZ-POH, TMZ, POH, or TMZ combined with POH (TMZ+POH), and analyzed the induction of γ-H2AX, activated caspase 7, and cleaved PARP. […] Thus, the results from the cell survival assay (FIGS. 20A-20B) correlated closely with the effects of these compounds on DNA damage and apoptosis markers (FIG. 25B), and in all cases TMZ-POH clearly generated the strongest anticancer impact.

Experiment [3] deals with MGMT-positive breast cancer cell lines. The experiment can be described thus: Colony formation assay, MGMT-positive breast cancer cell lines (summary). Format: cell-based. The settings on record: Homo sapiens; range over the three MGMT-positive lines. On the procedure:
Depending on the cell line (and plating efficiency), 200-350 cells were seeded into each well of a 6-well plate. […] Thereafter, the drugs were removed, fresh growth medium was added, and the cells were kept in culture undisturbed for 12-16 days, during which time the surviving cells spawned colonies of descendants. Colonies (defined as groups of >50 cells) were visualized by staining for 4 hours with 1% methylene blue (in methanol), and then were counted.

For `C=C(C)[C@@H]1CC=C(COC(=O)NC(=O)c2ncn3c(=O)n(C)nnc23)CC1` [TMZ-POH], the IC50 in experiment [1] was 150 µM; in experiment [3] it was 31 to 33 µM. Moreover, the “active caspase 7 and cleaved PARP” value in experiment [2] (MDA-MB-231, 15 μM, over 6 days) is “started to increase at day 3”. Besides, the γ-H2AX expression levels result in experiment [2] (MDA-MB-231, 15 μM, over 6 days) is listed as “pronounced increase in γ-H2AX expression levels”. The “induction of γ-H2AX, activated caspase 7, and cleaved PARP” value in experiment [2] (MDA-MB-231, 20 μM, after 5 days of treatment) is on record as “induced quite prominently”.
